According to US9499493B2, “2,4-pyrimidinediamine compounds and their uses” (Rigel Pharmaceuticals, Inc., priority 2002, dated 2016):

Legend:
[1] = system: cultured human mast cells (CHMC); test: CHMC low cell density IgE activation: tryptase assay; type: cell-based; settings: anti-IgE
Outline: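 Degranulation is read as supernatant tryptase activity, using tryptase substrate incubated 30 min at room temperature. Before this, CHMC at low density (1000-1500 cells/well) rest 1 hr at 37° C and are triggered with anti-IgE for 30 min at 37° C.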

[2] = system: cultured human mast cells (CHMC); test: CHMC low cell density ionomycin activation: tryptase assay; type: cell-based

Row | SMILES | IC50 [1] | IC50 [2]
1 | N#Cc1cnc(Nc2ccc(OCC(=O)NCC(O)CO)cc2)nc1Nc1cccc(O)c1 (centres unmarked) [R925846, 5-Cyano-N4-(3-hydroxyphenyl)-N2-[4-(N-2,3-dihydroxypropylamino)carbonylmethyleneoxyphenyl]-2,4-pyrimidinediamine] | > 10 µM | > 10 µM
2 | CSc1nc2ccc(Nc3ncc(F)c(Nc4ccc5c(c4)OCCO5)n3)cc2s1 [R950201, N4-(3,4-Ethylenedioxyphenyl)-5-fluoro-N2-[2-(methylthio)-1,3-benzothiaz-6-yl]-2,4-pyrimidinediamine] | 0.261 µM | > 10 µM
3 | Fc1cnc(Nc2ccc3[nH]ncc3c2)nc1Nc1ccc(Cl)cc1 [R935365, N4-(4-Chlorophenyl)-5-fluoro-N2-(indazoline-5-yl)-2,4-pyrimidinediamine] | 0.373 µM | > 10 µM
4 | OCCn1ncc2cc(Nc3ncc(F)c(Nc4cccc(O)c4)n3)ccc21 [R935256, 5-Fluoro-N2-[1-(2-hydroxyethyl)indazoline-5-yl]-N4-(3-hydroxyphenyl)-2,4-pyrimidinediamine] | 0.324 µM | > 10 µM
5 | CNC(=O)COc1cccc(Nc2ncc(F)c(Nc3ccc(Cl)c(-c4nc5ccccc5s4)c3)n2)c1 [R926900, N4-[3-(Benzothiazol-2-yl)-4-chlorophenyl]-5-fluoro-N2-[3-[(N-methylamino)carbonylmethyleneoxy]phenyl)-2,4-pyrimidinediamine] | > 10 µM | > 10 µM
6 | COC(=O)COc1ccc(Nc2ncc(F)c(Nc3ccc(OCC(N)=O)cc3)n2)cc1 [R945052, N4-(4-Aminocarbonylmethyleneoxyphenyl)-5-fluoro-N2-(4-methoxycarbonylmethyleneoxyphenyl)-2,4-pyrimidinediamine] | 0.425 µM | 2.48 µM
7 | CCOC(=O)COc1ccc(Nc2ncc(-c3nnn[nH]3)c(Nc3ccc(OCC(=O)OCC)cc3)n2)cc1 [R925810, N2,N4-Bis(4-ethoxycarbonylmethyleneoxyphenyl)-5-(1,2,3,4-tetrazol-5-yl)-2,4-pyrimidinediamine] | > 10 µM | > 10 µM
8 | CCOC(=O)C(C)(C)c1ccc(Nc2ncc(F)c(Nc3ccc(OC(C)C)cc3)n2)cc1 [R935150, N2-[4-[(1-Ethoxycarbonyl-1-methyl)ethyl]phenyl]-5-fluoro-N4-(4-isopropoxyphenyl)-2,4-pyrimidinediamine] | 1.93 µM | 9.74 µM
9 | COC(=O)C(C)Oc1ccc(Nc2ccnc(Nc3ccc(OC(C)C(=O)OC)cc3)n2)cc1 (racemic) [R926257, (±)-N2,N4-Bis[4-methoxycarbonyhalpha-methypmethyleneoxyphenyl]-2,4-pyrimidinediamine] | 1.5 µM | 7.5 µM
10 | CCOC(=O)COc1ccc(Nc2nc(Nc3ccc(OCC(=O)OCC)cc3)c(N)c(C(=O)OCC)n2)cc1 [R926567, 5-Amino-N2,N4-bis(4-ethoxycarbonylmethyleneoxyphenyl)-6-ethoxycarbonyl-2,4-pyrimidinediamine] | 9.3 µM | > 10 µM
11 | Cc1cc(Nc2nc(Nc3cccc(OCC(=O)N4CCNCC4)c3)ncc2F)cc(Cl)c1O [R945149, N4-(3-Chloro-4-hydroxy-5-methylphenyl)-5-fluoro-N2-[3-(N-piperazino)carbonylmethyleneoxyphenyl]-2,4-pyrimidinediamine] | 0.391 µM | > 10 µM
12 | N#Cc1cnc(Nc2ccc(OCC(=O)N3CCOCC3)cc2)nc1Nc1ccc(OCC(=O)N2CCOCC2)cc1 [R925854, N2,N4-Bis[4-(N-morphonlino)carbonylmethyleneoxyphenyl]-5-cyano-2,4-pyrimidinediamine] | > 10 µM | > 10 µM
13 | Nc1cccc(Nc2ncc(F)c(Nc3cccc(NCCOCc4ccccc4)c3)n2)c1 [R950175, N2-(3-Aminophenyl)-N4-[3-(N-benzyloxyethyleneamino)phenyl]-5-fluoro-2,4-pyrimidinediamine] | 1.69 µM | > 10 µM
